Measured values published in PubChem BioAssay (NCI).
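1) Cells in 96-well plates. 2) Compound, 48 h, 5 concentrations. 3) Linear interpolation between surrounding doses. 4) Unreached endpoint = highest concentration. GI50 = concentration required for 50% inhibition of growth. TGI: concentration producing complete growth inhibition.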

What was measured:
Assay in all cases: growth of human tumour cells (NCI), 48 h; in the data active = GI50 below about 0.43 µM; inactive = the rest
[1] = tested on: HOP-92 NSCLC
[2] = tested on: MOLT-4 leukemia
[3] = tested on: BT-549 breast
[4] = tested on: NCI-H522 lung
[5] = tested on: PC-3 prostate
[6] = tested on: OVCAR-3 ovarian
[7] = tested on: A549 NSCLC
[8] = tested on: LOX IMVI melanoma
[9] = tested on: OVCAR-4 ovarian
[10] = tested on: SK-MEL-5 melanoma
[11] = tested on: MDA-MB-435
[12] = tested on: SK-MEL-2 melanoma
[13] = tested on: CAKI-1 renal
[14] = tested on: A498 renal
[15] = tested on: UACC-62 melanoma
[16] = tested on: MDA-MB-231 breast
[17] = tested on: OVCAR-8 ovarian
[18] = tested on: COLO 205 colon
[19] = tested on: SF-539 CNS
[20] = tested on: HOP-62 NSCLC
[21] = tested on: HCC-2998 colon
[22] = tested on: SK-OV-3 ovarian
[23] = tested on: TK-10 renal
[24] = tested on: KM12 colon
[25] = tested on: CCRF-CEM leukemia
[26] = tested on: U251 CNS
[27] = tested on: IGROV1 ovarian
[28] = tested on: SK-MEL-28 melanoma
[29] = tested on: RPMI-8226 leukemia
[30] = tested on: SN12C renal
[31] = tested on: M14 melanoma
[32] = tested on: EKVX NSCLC
[33] = tested on: HCT-15 colon
[34] = tested on: HCT-116 colon
[35] = tested on: SNB-19 CNS
[36] = tested on: HT29 colon
[37] = tested on: RXF 393 renal
[38] = tested on: T-47D breast
[39] = tested on: DU-145 prostate
[40] = tested on: UO-31 renal
[41] = tested on: ACHN renal
[42] = tested on: K-562 leukemia
[43] = tested on: SW-620 colon
[44] = tested on: MALME-3M melanoma
[45] = tested on: SNB-75 CNS
[46] = tested on: HL-60(TB) leukemia
[47] = tested on: NCI-H460 lung
[48] = tested on: NCI-H23 lung
[49] = tested on: SF-268 CNS
[50] = tested on: HS 578T breast
[51] = tested on: SR leukemia
[52] = tested on: OVCAR-5 ovarian
[53] = tested on: NCI-H226 lung
[54] = tested on: 786-0 renal
[55] = tested on: NCI/ADR-RES ovarian
[56] = tested on: MCF7 breast
[57] = tested on: SF-295 CNS

C[C@@H]1C[N+]2([O-])[C@H]3C4=CCC[C@@H]4CC[C@H]3[C@@]3(C)OC(=O)CC[C@]34CC[C@H]1[C@@H]42 (some centres undefined)
> 60 µM: TGI [1] | TGI [2] | TGI [3] | TGI [4] | TGI [5] | TGI [6] | TGI [7] | TGI [8] | TGI [9] | TGI [10] | TGI [11] | TGI [12] | TGI [13] | TGI [14] | TGI [15] | TGI [16] | TGI [17] | TGI [18] | TGI [19] | TGI [20] | TGI [21] | TGI [22] | TGI [23] | TGI [24] | TGI [25] | TGI [26] | TGI [27] | TGI [28] | TGI [29] | TGI [30] | TGI [31] | TGI [32] | TGI [33] | TGI [34] | TGI [35] | TGI [36] | TGI [37] | TGI [38] | TGI [39] | TGI [40] | TGI [41] | TGI [42] | TGI [43] | TGI [44] | TGI [45] | TGI [46] | TGI [47] | TGI [48] | TGI [49] | TGI [50] | TGI [51] | TGI [52] | TGI [53] | TGI [54] | TGI [55] | TGI [56] | TGI [57]
inactive: GI50 [1] > 60 µM | GI50 [2] > 60 µM | GI50 [3] > 60 µM | GI50 [4] > 60 µM | GI50 [5] > 60 µM | GI50 [6] > 60 µM | GI50 [7] > 60 µM | GI50 [8] > 60 µM | GI50 [9] > 60 µM | GI50 [10] > 60 µM | GI50 [11] > 60 µM | GI50 [12] > 60 µM | GI50 [13] > 60 µM | GI50 [14] > 60 µM | GI50 [15] > 60 µM | GI50 [16] > 60 µM | GI50 [17] > 60 µM | GI50 [18] > 60 µM | GI50 [19] > 60 µM | GI50 [20] > 60 µM | GI50 [21] > 60 µM | GI50 [22] > 60 µM | GI50 [23] > 60 µM | GI50 [24] > 60 µM | GI50 [25] > 60 µM | GI50 [26] > 60 µM | GI50 [27] > 60 µM | GI50 [28] > 60 µM | GI50 [29] > 60 µM | GI50 [30] > 60 µM | GI50 [31] > 60 µM | GI50 [32] > 60 µM | GI50 [33] > 60 µM | GI50 [34] > 60 µM | GI50 [35] > 60 µM | GI50 [36] > 60 µM | GI50 [37] > 60 µM | GI50 [38] > 60 µM | GI50 [39] > 60 µM | GI50 [40] > 60 µM | GI50 [41] > 60 µM | GI50 [42] > 60 µM | GI50 [43] > 60 µM | GI50 [44] > 60 µM | GI50 [45] > 60 µM | GI50 [46] > 60 µM | GI50 [47] > 60 µM | GI50 [48] > 60 µM | GI50 [49] > 60 µM | GI50 [50] > 60 µM | GI50 [51] > 60 µM | GI50 [52] > 60 µM | GI50 [53] > 60 µM | GI50 [54] > 60 µM | GI50 [55] > 60 µM | GI50 [56] > 60 µM | GI50 [57] > 60 µM
